In brackets after ≈: the same amount, converted by molar mass. Read-outs that look alike come from different tables or passages of the source.
How the values were obtained:
S. aureus Newman = test: Minimal inhibitory concentration (MIC), double-dilution in broth, OD600; assay type: cell-based, Staphylococcus aureus Newman; settings: unit assumed
Experimental: (§1) In short, a stock solution of 5 mg/mL of HKIs in DMSO was made. This stock was diluted to 50 µg/mL in broth in a 96 well plate. Dilutions were made (factor 2) directly in the plate with a multi-channel pipet. Bacteria cultured in suspension overnight were then added to the plate (except negative control) and the plate was incubated for 24 hours. After 24 hours the OD600 was measured using a spectrophotometer. A positive control (with bacteria, without HKI) was also measured on each plate.
Bacterial strains used in this study for antibacterial susceptibility testing (Table S2) were propagated using standard microbiological procedures. Minimal inhibitory concentrations (MICs) were determined following a standard double-dilution method (42), 73. […] For M. marinum, MICs were determined in Middlebrook 7H9 broth (Difco) and MICs were determined after 3 days incubation at 30 °C.
(§2) Grow the bacterial colonies to be tested from single colonies on an agar plate in LB broth or suitable bacterial growth medium overnight at 37°C. Prepare a 5 mg/mL stock solution of compounds to be tested in DMSO. One 96-well plate per bacterial strain was prepared. First, put 50 uL of medium to each well. Add 48 µL of medium to all wells in row A. Pipet 2 µL of antimicrobial master stock into the top well (row A). Beware, the antimicrobial concentration will be diluted 2x after adding the bacterial culture. Total volume in each well will be 100 µL. In A11, pipet 2 µL of DMSO. Make a serial dilution from row A to row H, pipetting 50 µL from the previous row into the new one. Mix well by pipetting up and down. Discard the last 50 µL so that there is 50 µl in each well In a clean, new plastic pipetting cup, dilute the overnight bacterial culture 100 times. Add 100 µL of bacterial overnight culture to 9900 µL of medium. Mix the suspension well. Once the serial dilutions are complete for all antimicrobial compounds, add 50 µL of diluted overnight bacterial culture to each well (except column 12). Mix by pipetting or put the plate on the shaker. Per 2 plates, close with parafilm around the edges and place in the incubator overnight. After overnight culturing, measure bacterial growth on the SpectraMax. The lowest concentration where no growth is observed is the MIC. To determine the MIB pipette 5 µL from each well of the 96 well plate where now growth was observed on to an LB agar plate, without antimicrobial. Put the plates in the incubator to grow overnight. The minimal concentration where no growth can be seen on the agar plate is the MBC.

S. suis = test: as above; assay type: cell-based, Streptococcus suis; settings: unit assumed
Experimental: as §1, with “each plate. The MICs were not determined in duplo/triplicate in the same experiment, however, the MICs of several HKIs were measured in different experiments and no major differences (max. 1x dilution) were found in the MICs between the experiments.” for “each plate.”
(§3) Bacterial strains used in this study for antibacterial susceptibility testing (Table S2) were propagated using standard microbiological procedures. Minimal inhibitory concentrations (MICs) were determined following a standard double-dilution method (42), 73. MICs were recorded as the lowest concentration of the compound where no visible growth was observed. After plating the dilutions around the MIC or growing them in fresh MH media, minimal bactericidal concentration (MBC) was recorded as the lowest concentration of the compound at which no colonies were formed or no growth was observed, respectively. For M. marinum, MICs were determined in Middlebrook 7H9 broth (Difco) and MICs were determined after 3 days incubation at 30 °C.
as §2

P. multocida = test: as above; assay type: cell-based, Pasteurella multocida; settings: unit assumed
Experimental: as §1, with “each plate. The MICs were not determined in duplo/triplicate in the same experiment, however, the MICs of several HKIs were measured in different experiments and no major differences (max. 1x dilution) were found in the MICs between the experiments.” for “each plate.”
as §3, §2

M. marinum = test: Minimal inhibitory concentration (MIC), Middlebrook 7H9 broth, 3 days at 30 °C; assay type: cell-based, Mycobacterium marinum; settings: unit assumed
Experimental: as §1, with “each plate. The MICs were not determined in duplo/triplicate in the same experiment, however, the MICs of several HKIs were measured in different experiments and no major differences (max. 1x dilution) were found in the MICs between the experiments.” for “each plate.”
as §3, §2

HEK293 = test: Cell toxicity, Alamar blue assay, 24 hours exposure; assay type: cell-based; settings: Homo sapiens
Experimental: (§4) Toxicity was primarily determined by measuring cytotoxicity with the Alamar blue assay. In short, cells (HEK293, NRK-52E and Caco-2) were plated in 96-well plates and cultured overnight. HKI compounds were diluted to concentrations ranging from 0.39 to 500 µg/mL in serum-free medium and added to the cells.
(§5) After exposure, cells were incubated for 24 hours. Experiments were mostly performed by single measurement. […] After 24 hours HKIs were removed from the cells and Alamar blue was added, incubated for 45 minutes and fluorescence was measured on a spectrophotometer. Alamar blue measures the conversion of blue, low fluorescent resazurin into high fluorescent pink resorufin. This conversion can only be made in viable mitochondria in viable cells and therefore this dye provides a measure for cytotoxicity.

NRK-52E = test: as above; assay type: cell-based; settings: Rattus norvegicus, read-out: IC50 NRK-52E (50 mg/mL stock)
Experimental: as §4, §5

E. faecium Van A = test: Minimal inhibitory concentration (MIC), double-dilution in broth, OD600; assay type: cell-based, Enterococcus faecium; settings: unit assumed
Experimental: as §1, with “each plate. The MICs were not determined in duplo/triplicate in the same experiment, however, the MICs of several HKIs were measured in different experiments and no major differences (max. 1x dilution) were found in the MICs between the experiments.” for “each plate.”
as §3, §2

E. coli JW5503 = assay type: cell-based, Escherichia coli; settings: unit assumed
Experimental: as §1, with “each plate. The MICs were not determined in duplo/triplicate in the same experiment, however, the MICs of several HKIs were measured in different experiments and no major differences (max. 1x dilution) were found in the MICs between the experiments.” for “each plate.”
as §3, §2

[1] = HEK293, read-out: IC50 HEK293 (5 mg/mL stock)
[2] = HEK293, read-out: IC50 HEK293 (50 mg/mL stock)

## CCOc1ccc(-c2n[nH]c(C(F)(F)F)c2-c2ccc(OC)cc2)c(O)c1 [May-7, 5-ethoxy-2-[4-(4-methoxyphenyl)-5-(trifluoromethyl)-1∼{H}-pyrazol-3-yl]phenol]
S. aureus Newman
  MIC S. aureus Newman: 6.25 µg/mL (≈ 16.5 µM)
S. suis
  MIC S. suis: 6.25 µg/mL (≈ 16.5 µM)
P. multocida
  MIC P. multocida: > 50 µg/mL
M. marinum
  MIC M. marinum: 50 µg/mL (≈ 132 µM)
HEK293; [1]
  IC50: 5.68 µg/mL (≈ 15 µM)
HEK293; [2]
  IC50: 231 µg/mL (≈ 610 µM)
NRK-52E
  IC50: ~31.1 µg/mL (≈ 82.3 µM)

## CCOc1ccc(-c2[nH]nc(C(F)(F)F)c2-c2ccc(OC)c(OC)c2)c(O)c1 [May-3, 2-[4-(3,4-dimethoxyphenyl)-5-(trifluoromethyl)-1∼{H}-pyrazol-3-yl]-5-ethoxy-phenol]
S. aureus Newman
  MIC S. aureus Newman: 12.5 µg/mL (≈ 30.6 µM)
S. suis
  MIC S. suis: 12.5 µg/mL (≈ 30.6 µM)
P. multocida
  MIC P. multocida: > 50 µg/mL
M. marinum
  MIC M. marinum: 25 µg/mL (≈ 61.2 µM)
HEK293; [1]
  IC50: 6.69 µg/mL (≈ 16.4 µM)
NRK-52E
  IC50: ~0.8 µg/mL (≈ 1.96 µM)

## CCOc1ccc(-c2n[nH]c(C)c2-c2ccc(Cl)cc2)c(O)c1 [Sep-22, 2-[4-(4-chlorophenyl)--5-methyl-1∼{H}-pyrazol-3-yl]-5-ethoxy-phenol]
S. aureus Newman
  MIC S. aureus Newman: 50 µg/mL (≈ 152 µM)
S. suis
  MIC S. suis: 50 µg/mL (≈ 152 µM)
P. multocida
  MIC P. multocida: > 50 µg/mL
M. marinum
  MIC M. marinum: > 50 µg/mL
E. faecium Van A
  MIC E. faecium Van A: > 50 µg/mL
HEK293; [2]
  IC50: 23.6 µg/mL (≈ 71.8 µM)
NRK-52E
  IC50: ~1480 µg/mL (≈ 4510 µM)

## Oc1ccc(-c2onc(C(F)(F)F)c2-c2ccc(Cl)cc2)c(O)c1 [AND-2, 4-[4-(4-chlorophenyl)-3-(trifluoromethyl)isoxazol-5-yl]resorcinol]
S. aureus Newman
  MIC S. aureus Newman: 3.13 µg/mL (≈ 8.8 µM)
S. suis
  MIC S. suis: 12.5 µg/mL (≈ 35.1 µM)
P. multocida
  MIC P. multocida: 25 µg/mL (≈ 70.3 µM)
M. marinum
  MIC M. marinum: > 50 µg/mL
E. faecium Van A
  MIC E. faecium Van A: 6.25 µg/mL (≈ 17.6 µM)
HEK293; [1]
  IC50: 6.97 µg/mL (≈ 19.6 µM)
HEK293; [2]
  IC50: 36.7 µg/mL (≈ 103 µM)
NRK-52E
  IC50: ~3.88 µg/mL (≈ 10.9 µM)

## Oc1cc(OCc2c(F)cccc2Cl)ccc1-c1[nH]nc(C(F)(F)F)c1-c1ccc(Cl)cc1 [Sep-11, 5-(2-chloro-6-fluorobenzyl)oxy-2-[4-(4-chlorophenyl)-5-(trifluoromethyl)-1∼{H}-pyrazol-3-yl]phenol]
S. aureus Newman
  MIC S. aureus Newman: 3.13 µg/mL (≈ 6.29 µM)
S. suis
  MIC S. suis: 12.5 µg/mL (≈ 25.1 µM)
P. multocida
  MIC P. multocida: > 50 µg/mL
M. marinum
  MIC M. marinum: > 50 µg/mL
E. coli JW5503
  MIC E. coli JW5503: > 50 µg/mL
E. faecium Van A
  MIC E. faecium Van A: 6.25 µg/mL (≈ 12.6 µM)
NRK-52E
  IC50: 11.8 µg/mL (≈ 23.8 µM)

## Cc1[nH]nc(-c2ccc(O)cc2O)c1-c1ccc(Br)cc1 [May-1, 4-[4-(4-bromophenyl)-5-methyl-1∼{H}-pyrazol-3-yl]resorcinol]
S. aureus Newman
  MIC S. aureus Newman: 12.5 µg/mL (≈ 36.2 µM)
S. suis
  MIC S. suis: 6.25 µg/mL (≈ 18.1 µM)
P. multocida
  MIC P. multocida: 12.5 µg/mL (≈ 36.2 µM)
M. marinum
  MIC M. marinum: 50 µg/mL (≈ 145 µM)
E. coli JW5503
  MIC E. coli JW5503: 3.13 µg/mL (≈ 9.07 µM)
E. faecium Van A
  MIC E. faecium Van A: 12.5 µg/mL (≈ 36.2 µM)
NRK-52E
  IC50: 5.95 µg/mL (≈ 17.2 µM)

## COc1ccc(-c2c(-c3ccc(O)cc3O)n[nH]c2C(F)(F)F)cc1 [May-9, 4-[4-(4-methoxyphenyl)-5-(trifluoromethyl)-1∼{H}-pyrazol-3-yl]resorcinol]
S. aureus Newman
  MIC S. aureus Newman: 12.5 µg/mL (≈ 35.7 µM)
S. suis
  MIC S. suis: 12.5 µg/mL (≈ 35.7 µM)
P. multocida
  MIC P. multocida: 50 µg/mL (≈ 143 µM)
M. marinum
  MIC M. marinum: > 50 µg/mL
E. coli JW5503
  MIC E. coli JW5503: 3.13 µg/mL (≈ 8.94 µM)
E. faecium Van A
  MIC E. faecium Van A: 25 µg/mL (≈ 71.4 µM)
NRK-52E
  IC50: ~3.15 µg/mL (≈ 8.99 µM)

From EP3827825A1, “USE OF 3, 4-DIARYLPYRAZOLES AS ANTIBACTERIAL AGENTS” (Wageningen Universiteit, priority 2019, dated 2021)
